The record followed here is patent US6417383B1, “Thermosensitive cyclotriphosphazene derivatives and a preparation method thereof” (Korea Institute of Science and Technology, priority 1999, dated 2002).

The data set can be described thus: LCST (lower critical solution temperature) measured by UV/VIS spectrophotometer. The data set is classed as physicochemical. The conditions noted are these: lower critical solution temperature in water; Perkin-Elmer Lamda18 UV/VIS spectrophotometer. As to the method:
Thermosensitivity in the present invention refers to the reversible phenomenon wherein a material is dissolved in water at a low temperature but precipitated as a result of the lowered solubility above at a critical temperature, and re-dissolved in water by lowering the temperature. This phenomenon is contradictory to the general phenomenon that solubility increases at higher temperatures. Thermosensitivity is often observed for water-soluble polymers that are dissolved below and precipitated above the so-called lower critical solution temperatures (LCST). Below the LCST, interaction between polymer and water molecules by hydrogen bonding is greater than the intermolecular hydrophobic interaction between polymer molecules, which results in dissolution of the polymer in water. As the temperature of the aqueous solution increases, however, the hydrogen bonding of the polymer-water molecules weakens whereas the hydrophobic interaction between the polymer molecules increases. As, the temperature of the aqueous solution reaches the LCST, the hydrophobic interaction becomes greater than the hydrogen bonding interaction between the polymer and water molecules resulting in the precipitation of the polymer in aqueous solution.
Elemental analysis of carbon, hydrogen, nitrogen in the compounds of the present invention was performed in the Special Analysis Center in our Institute by using a carbon, hydrogen and nitrogen analyzer (Perkin Eimer), and phosphorous analysis was performed using a Polyscan 61E ICP. Also, hydrogen and phosphorous nuclear magnetic resonance spectra were obtained using a Varian Gemini-300, and the LCST was measured by using a Perkin-Elmer Lamda18 UV/VIS spectrophotometer.
Regarding “(Poly(methoxyethyleneglycol350))(L-aspartoyldiethylester) cyclotriphosphazene [Example 10]”, the LCST is 83.0 °C. With “(2-(2′-Methoxyethoxy)ethoxy)(L-aspartoyldiethylester) cyclotriphosphazene [Example 4]” the figure was 47.5 °C; with “(2-(2′-Methoxyethoxy)ethoxy)(glycinebenzylester) cyclotriphosphazene [Example 2]”, 10.5 °C; with “(2-(2′-Methoxyethoxy)ethoxy)(glycineethylester)cyclotriphosphazene [Example 1]”, “above 100 °C”. With “(Poly(methoxyethyleneglycol350))(L-glutamoyldiethylester) cyclotriphosphazene [Example 12]” the figure was 73.0 °C; with “(Poly(methoxyethyleneglycol750))(L-aspartoyldibenzylester) cyclotriphosphazene [Example 14]”, 78.5 °C; with “(Poly(methoxyethyleneglycol350))(L-aspartoyldibenzylester)cyclotriphosphazene [Example 11]”, 42.5 °C. With “(Poly(methoxyethyleneglycol350))(glycinebenzylester) cyclotriphosphazene [Example 8]” the figure was 65.5 °C; with “(Poly(methoxyethyleneglycol350))(aminomalonatoyl diethylester)cyclotriphosphazene [Example 9]”, 95.0 °C. Regarding “(2-(2′-Butoxyethoxy)ethoxy)(L-aspartoyldiethylester) cyclotriphosphazene [Example 7]”, the LCST entry is “below 0 °C”. The substance “(2-(2′-Ethoxyethoxy)ethoxy)(L-aspartoyldiethylester) cyclotriphosphazene [Example 6]” showed an LCST of 16.5 °C. “(Poly(methoxyethyleneglycols550))L-aspartoyldibenzylester) cyclotriphosphazene [Example 13]” displayed an LCST of 69.0 °C.

Substance “(2-(2′-Methoxyethoxy)ethoxy)-(aminomalonatodiethylester) cyclotriphosphazene [Example 3]” gave an LCST of 39.0 °C. With “(2-(2′-Methoxyethoxy)ethoxy)(L-glutamoyldiethylester) cyclotriphosphazene [Example 5]”, the LCST was 30.0 °C.
